Laboratory results reported in ChEMBL document CHEMBL5038615, “Discovery of a cinnamyl piperidine derivative as new neddylation inhibitor for gastric cancer treatment” (Eur J Med Chem, 2021).

Key:
[1] = Toxicity in NOD-SCID mouse xenografted with human MGC-803 cells assessed as change in body weight at 50 to 100 mg/kg/day, IG measured after 21 days; format: organism-based; conditions: in vivo, po, 504 h, dose 50-100 mg/kg/day, time 21 day
HGC-27 [2] = experiment: Induction of apoptosis in human HGC-27 cells assessed as necrotic cells at 3 uM measured after 48 hrs by AnnexinV/FITC staining based flow cytometry method (reference value: 0.1%); format: functional
HGC-27 [3] = experiment: Induction of apoptosis in human HGC-27 cells assessed as necrotic cells at 9 uM measured after 48 hrs by AnnexinV/FITC staining based flow cytometry method (reference value: 0.1%); format: functional
MGC-803 [4] = experiment: Induction of apoptosis in human MGC-803 cells assessed as viable cells at 5 uM measured after 24 hrs by AnnexinV/FITC staining based flow cytometry method (reference value: 94.8%); format: functional; conditions: read-out: Activity
MGC-803 [5] = experiment: Induction of apoptosis in human MGC-803 cells assessed as upregulation of Bak at 2.5 to 7.5 uM measured after 24 hrs by Western blot assay; format: functional, cell-based; conditions: dose 2.5-7.5 µM
MGC-803 [6] = experiment: Induction of apoptosis in human MGC-803 cells assessed as early apoptotic cells at 2.5 uM measured after 24 hrs by AnnexinV/FITC staining based flow cytometry method (reference value: 1.3%); format: functional
MGC-803 [7] = experiment: Cell cycle arrest in human MGC-803 cells assessed as accumulation of cells at S phase at 7.5 uM measured after 24 hrs by Flowcytometry assay (reference value: 36.51%); format: functional
HGC-27 [8] = experiment: Induction of apoptosis in human HGC-27 cells assessed as late apoptotic cells at 9 uM measured after 24 hrs by AnnexinV/FITC staining based flow cytometry method (reference value: 2.4%); format: functional
MGC-803 [9] = experiment: Induction of apoptosis in human MGC-803 cells assessed as reduction of mitochondrial membrane potential at 5 uM measured after 24 hrs by JC-1 staining based Flowcytometry assay (reference value: 3.8%); format: functional; design: scale not given: the % may be the effect or the level left
MGC-803 [10] = experiment: Inhibition of cell migration in human MGC-803 cells at 1.25 to 5 uM measured after 24 to 48 hrs by wound healing assay based inverted microscopic analysis; format: functional; conditions: dose 1.25-5 µM, time 24-48 hrs
MGC-803 [11] = experiment: Induction of apoptosis in human MGC-803 cells assessed as early apoptotic cells at 7.5 uM measured after 48 hrs by AnnexinV/FITC staining based flow cytometry method (reference value: 1.5%); format: functional
MCF7 = experiment: Antiproliferative activity against human MCF7 cells assessed as inhibition of cell proliferation measured after 72 hrs by MTT assay; format: functional, cell-based; conditions: MCF7, 72 h
MGC-803 [12] = experiment: Induction of apoptosis in human MGC-803 cells assessed as late apoptotic cells at 7.5 uM measured after 24 hrs by AnnexinV/FITC staining based flow cytometry method (reference value: 2%); format: functional

IC50 (MCF7): 3.74 µM
Structure (SMILES): CCCCCc1ccc(NC(=O)C2CCN(C/C=C/c3ccccc3)CC2)cc1
Activity [1]: Non-Toxic
Activity (HGC-27 [2]): 2.4%
Activity (HGC-27 [3]): 0%
viability at 5 µM (MGC-803 [4]): 80.1%
Activity (MGC-803 [5]): Dose-Dependent Effect
Activity (MGC-803 [6]): 2.1%
Activity (MGC-803 [7]): 33.6%
Activity (HGC-27 [8]): 74%
Activity (MGC-803 [9]): 17.4%
Activity (MGC-803 [10]): Dose-Dependent Effect
Activity (MGC-803 [11]): 4%
Activity (MGC-803 [12]): 82.4%
